Experimental data: patent publication US8093286B2, “Methods for treatment with bucindolol based on genetic targeting” (The Regents of the University of Colorado, a body corporate, priority 2004, dated 2012)
Structures can show the parent of a compound that is named as a salt.

How the values were obtained:
β1-Arg389 receptor = target: T1, β1-Arg389 receptor (Homo sapiens, UniProt P08588, G389R); assay: 125I-cyanopindolol competition binding in transfected cells; conditions: 125I-CYP competition, n=3; read-out: affinity for bucindolol (pKi) (converted)
T1 construct: expressed in transfected cells
T1 sequence (P08588 whole entry G389R): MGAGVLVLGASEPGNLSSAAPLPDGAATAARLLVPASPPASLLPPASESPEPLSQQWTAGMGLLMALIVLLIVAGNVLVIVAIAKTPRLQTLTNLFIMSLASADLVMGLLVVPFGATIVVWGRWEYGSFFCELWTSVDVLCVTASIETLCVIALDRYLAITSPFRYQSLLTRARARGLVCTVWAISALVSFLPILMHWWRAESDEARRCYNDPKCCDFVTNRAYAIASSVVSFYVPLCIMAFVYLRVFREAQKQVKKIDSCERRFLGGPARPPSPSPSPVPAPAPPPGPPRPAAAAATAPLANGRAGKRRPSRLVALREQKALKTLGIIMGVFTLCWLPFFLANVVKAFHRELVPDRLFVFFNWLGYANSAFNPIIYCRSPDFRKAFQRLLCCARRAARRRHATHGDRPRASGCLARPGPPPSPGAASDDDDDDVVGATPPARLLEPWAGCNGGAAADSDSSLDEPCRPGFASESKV
Description: (§1) Chinese hamster fibroblasts were stably transfected using constructs previously described so as to separately express the human β1-Arg389 or β1-Gly389 receptors. β1AR expression, and affinity for bucindolol, were determined by radioligand binding studies with ^125I-cyanopindolol (125I-CYP), using 1 μM propranolol to define nonspecific binding as described. Whole cell cAMP accumulation studies were carried out by the [^3H]-adenine method using two lines with equivalent expression levels of the two receptors as indicated. Attached cells were exposed to vehicle (basal), 10 μM norepinephrine or 10 uM norepinephrine with the indicated concentrations of bucindolol for 15 min at 37° C.

β1-Gly389 receptor = target: T2, β1-Gly389 receptor (Homo sapiens, UniProt P08588); assay: as above; conditions: 125I-CYP competition, n=3; read-out: affinity for bucindolol (pKi) (converted)
T2 construct: expressed in transfected cells
T2 sequence (P08588 whole entry): as the sequence (P08588 whole entry G389R) above, with R389G counted along it
Description: as §1

[1] = BEST trial, peripheral venous norepinephrine and haemodynamic changes; type: in vivo, human
Description: (§2) Because of an initial delay in setting up the procedures, collection of blood samples for norepinephrine in all randomized patients began 6 months after trial initiation.
(§3) Peripheral venous NE samples were drawn at baseline, 3 and 12 months by inserting a 21 gauge butterfly needle into an arm vein and placing the subject in a quiet room in a supine position for 30 minutes. The initial 3 ml of blood was discarded, and then 5 ml of blood was withdrawn and immediately transferred to pre-chilled 5 ml tubes containing EDTA. Within 30 min plasma was separated and frozen at −70° C. Sites shipped samples on dry ice to a central laboratory (LabCorp, Raritan, N.J.) every 3 mo, where the samples were stored at −85° C. and assayed within 3 weeks. NE was measured by HPLC-electrochemical detection using the Bio-Rad HPLC method (Bio-Rad Laboratories Hercules, Calif.). Quality control included re-measuring all samples with initial values of <200 pg/ml or >2000 pg/ml, from the 2nd stored tube; and routinely (every 20 samples) measuring known amounts.
(§4) Means and standard deviations (SD) for continuous data, and proportions or percentages for categorical data are presented. T-tests or Wilcoxon rank sum tests were used for continuous data, and chi-square or Fisher's exact test for categorical data. An alpha level of 0.05 (2 tailed, unadjusted) was used to indicate statistical significance.

[2] = test system: systemic venous norepinephrine; assay: as above; type: in vivo, human; conditions: for NE change @ 3 mos, mean ± SD: Bucindolol Inter subgroup (Δ NE −244.5, ≦ +145), hydrochloride
Description: as §2, §3, §4

[3] = test system: nonfailing human right ventricular trabeculae; assay: contractile response of isolated right ventricular trabeculae from nonfailing human hearts; conditions: with and without forskolin
Description: Nonfailing hearts were obtained from local potential organ donors whose hearts were not transplanted because of physical or ABO blood type incompatibility. Failing hearts were from patients with end-stage heart failure due to ischemic or non-ischemic dilated cardiomyopathies who underwent cardiac transplantation. The demographic characteristics of the hearts are provided in Results. The contractile response of isolated, field stimulated, human trabeculae was assessed as previously described {1755; a-c}. Trabeculae of uniform size (1 to 2×6 to 8 mm) were mounted in 80 ml muscle bath chambers in Tyrode's solution at pH 7.45 bubbled with 95% O2-5% CO2 at 36^0. After equilibration, a tension of 75% of Lmax was applied to each individual trabeculum. Field-stimulation by a 5-ms pulse at 10% above threshold was then applied, and after equilibration full dose-response curves to isoproterenol, bucindolol or xamoterol were performed using the indicated concentrations and application of increasing doses every 5 minutes. In experiments in which forskolin was used to enhance signal transduction {e,f}, 10^−6 M of this adenylyl cyclase activator was applied to the tissue baths 15-20 minutes prior to the performance of dose-response curves, and allowed to achieve stability of tension response. Systolic tension at each dose was calculated as the stimulated tension in mN/mm^2 minus baseline tension. The maximum tension, concentration of isoproterenol that produced 50% of the maximum developed tension (EC50) and curve slope were computed by nonlinear repeated measures analysis of covariance. […] Statistical methods were employed as described in Examples 3 and 4.

SMILES: CC(C)(Cc1c[nH]c2ccccc12)NCC(O)COc1ccccc1C#N (stereo not drawn) [bucindolol, (2-{2-hydroxy-3{{2-(3-indolyl)-1,1-dimethylethyl}amino}propoxy}-benzonitrile hydrochloride)]
- Ki (β1-Arg389 receptor): 0.251 nM
- Ki (β1-Gly389 receptor): 0.251 nM
- Change in LVEF @ 12 mos ([1]; Bucindolol Incr subgroup): 7.1 ± 8.8 EFU
- Change in LVEF @ 12 mos ([1]; Bucindolol Inter subgroup): 7.3 ± 10.4 EFU
- Change in LVEF @ 12 mos ([1]; Bucindolol Redxn subgroup): 8.8 ± 9.2 EFU
- decrease in norepinephrine relative to changes in the placebo group ([2]; 3 months): 19%
- decrease in norepinephrine relative to changes in the placebo group ([2]; 12 months): 13%
- average decrease in norepinephrine at 3 months ([2]; 153 bucindolol subjects at higher mortality risk with norepinephrine reduction): 529 pg/mL
- Change in SBP @ 12 mos ([2]; Bucindolol Incr subgroup): −0.9 ± 16.8 mm Hg
- HR (heart rate) change @ 12 mos ([2]; Bucindolol Incr subgroup): −8.1 ± 14.6 BPM
- Change in LVEF @ 3 mos ([2]; Bucindolol Inter subgroup): 5.7 ± 7.9 EFU
- Change in SBP @ 3 mos ([2]; Bucindolol Inter subgroup): −0.5 ± 15.7 mm Hg
- Change in SBP @ 12 mos ([2]; Bucindolol Inter subgroup): 0.7 ± 18.0 mm Hg
- HR (heart rate) change @ 3 mos ([2]; Bucindolol Inter subgroup): −9.7 ± 12.4 BPM
- HR (heart rate) change @ 12 mos ([2]; Bucindolol Inter subgroup): −7.9 ± 13.5 BPM
- NE change @ 3 mos, mean ± SD ([2]; n = 551): -44 pg/mL
- NE change @ 3 mos, mean ± SD ([2]; n = 551, listed as Bucindolol): -44 ± 103 pg/mL
- NE change @ 12 mos, mean ± SD ([2]; Bucindolol Inter subgroup, n = 551): 17.5 ± 216 pg/mL
- Change in SBP @ 3 mos ([2]; Bucindolol Redxn subgroup): −0.7 ± 18.2 mm Hg
- Change in SBP @ 12 mos ([2]; Bucindolol Redxn subgroup): 2.7 ± 20.1 mm Hg
- proportion of bucindolol-treated patients with marked norepinephrine reduction at 3 months ([2]; NE reduction ≧244.5 pg/ml): 18%
- average reduction in norepinephrine at 3 months (SEM) ([2]; α2c DEL 322-325 carriers): 153 ± 57 pg/mL
- average reduction in norepinephrine at 3 months (SEM) ([2]; α2c WT/WT patients): 50 ± 13 pg/mL
- intrinsic sympathomimetic activity (increase in force) [3]: no evidence of ISA
